From patent publication US7560474B2, “Derivatives of pyridilethanol (phenylethyl) amines as inhibitors of cholesterol biosynthesis, process for their preparation and pharmaceutical compositions containing them” (Lek Pharmaceuticals d.d., priority 2002, dated 2009)
Entries after “also recorded” stand apart in the source; their conditions may differ. Structures can show the parent of a compound that is named as a salt.

Columns and labels:
[1] = system: cholesterol biosynthesis in immortal human hepatocyte cell line HepG2; assay: Metabolic labeling of immortal human hepatocytes (HepG2) with [3H] acetate, HPLC sterol analysis; assay type: cell-based; conditions: 100 μM inhibitor, HepG2 cells, [3H] acetate labeling, radiodetector HPLC; for quantity of radiolabelled cholesterol synthesized (inhibition of cholesterol biosynthesis): FIG. 3
Procedure: In accordance with the invention goal, the effect of the novel derivatives of pyridylethanol (phenylethyl) amine as ligands of sigma receptors on inhibition of cholesterol biosynthesis was assessed. An ex vivo method of metabolic labeling of immortal human hepatocytes was employed. The radioactively labelled early precursor of cholesterol [^3H] acetate was added to cells with or without addition of sigma ligands. Two independent experiments of metabolic labeling and sterol analysis were performed. […] The inhibitory effect on cholesterol biosynthesis of our novel ligands of sigma receptors BK-31.2 HBr, BK-33.2HBr, BK-35.2HBr and BK-38.2HBr), prepared according to examples 1 to 4, was evaluated. An ex vivo method of metabolic labeling of immortal human hepatocytes was applied. The radiolabel led precursor of cholesterol biosynthesis [^3H] acetate was added to the cells with or without the addition of sigma ligands. Finally, two independent experiments of metabolic labeling and sterol analysis were performed for each compound. The immortal human hepatocyte cell line HepG2 was split to the 75 cm^2 flasks in the ratio 1:2, two flasks for each condition. The cells were cultured in the DMEM culture ([…] 0.0626 […] 0.042 […]-thryptophan 0.016 g/l, L-[…]Na.2H2O 0.10379 […], choline chloride 0.004 g/l, folic acid 0.004 g/l, myo-inositol 0.0072 g/l, niacinamide 0.004 g/l, D-pantothenic acid 0.004 g/l, pyridoxal.HCl 0.004 g/l, riboflavin 0.0004 g/l, thiamine.HCl 0.004 g/l, calcium chloride.2H2O 0.265 g/l, ferric nitrate.9H2O 0.0001 g/l, magnesium sulfate [anhydride] 0.09767 g/l, potassium chloride 0.4 g/l, sodium chloride 6.4 g/l, monobasic sodium phosphate [anhydride] 0.109 g/l, glucose 4.5 g/l and phenol red, Na 0.0159 g/l) with 5% bovine serum and 1% L-glutamine. After 24 hours a medium with 100 μM ligands of sigma receptors (BK-31.2HBr, BK-33.2HBr, BK-35.2HBr and BK-38.2HBr) was added to the cells. The known inhibitors of cholesterol biosynthesis, 100 μM lovastatin or pravastatin, both the inhibitors of HMG-CoA reductase, and 100 μM fluconazole that inhibits enzymes of the P450 family to which lanosterol 14α-[…] (CYP51) also belongs, were used as positive controls. The cells grown in normal media without the addition of inhibitors served as negative control. The medium was exchanged after 24 hours. After 48 hours, 40 μCi [^3H] acetate was added per 1 ml of the medium (400 μCi per flask). The medium was aspirated after 24 hours, and the cells were tryptinized with 2 ml of trypsine. The cells were collected in 4 ml of the medium, centrifuged, and the cell pellet resuspended in distilled water (1 ml per flask). The cells were homogenized by freeze-thawing. Sterols were extracted from the homogenate. Protein concentration was determined in the homogenate with the Bio-rad reagent according to the recommended protocol of the producer. The homogenate was transferred into glass vials with an inert cover. 3 ml of the extraction solution (75% n-heptane:25% isopropanol (vol/vol)) was added. The closed vials were shaken vigorously on a shaker in the dark room for 2 hours. […] Until analysis, the samples were stored in the HPLC-grade solvent in dark and cold. The dried extracts were dissolved in 250 μl n-heptane. 100 μl aliquots were injected into the normal phase column (ChromSpher Si, 150 mm×3 mm, particle size 5 μm) with the mobile phase 99.5% n-heptane:0.5% isopropanol at flow rate 1 ml/min and room temperature. […] For determination of sterol after metabolic labeling, a radiodetector with the flow-through cell was used. […] G. Byskov, Rikhospitalitet, University of Copenhagen). The results were normalized according to the quantity of internal standard ergosterol and the concentration of proteins in the homogenate. The results represent the average value of two measurements with appropriate standard deviation.

| SMILES | quantity of radiolabelled cholesterol synthesized (inhibition of cholesterol biosynthesis) [1] | also measured |
| --- | --- | --- |
| CCCN(CCc1ccccc1)CC(O)c1cccnc1 (stereo not drawn) (as salt: hydrobromid) [BK-31.2HBr, 1-(3-pyridyl)-2-(N-(2-phenylethyl)-N-propylamino)ethanol dihydrobromide] | – | melting point: 113 to 120 °C |
| CCCN(CCc1ccccc1)CC(O)c1cccnc1 (stereo not drawn) [BK-31.2HBr, 1-(3-pyridyl)-2-(N-(2-phenylethyl)-N-propylamino)ethanol dihydrobromide] | significantly lowered amounts of cholesterol | – |
| CN(CCc1ccc(Cl)c(Cl)c1)CC(O)c1cccnc1 (stereo not drawn) [BK-33.2HBr, 1-(3-pyridyl)-2-(N-(2-(3,4-dichlorophenyl)ethyl)-N-methylamino)ethanol dihydrobromide] | significantly lowered amounts of cholesterol | – |
| CCCN(CCc1ccc(Cl)c(Cl)c1)CC(O)c1cccnc1 (stereo not drawn) [BK-35.2HBr, 1-(3-pyridyl)-2-(N-(2-(3,4-dichlorophenyl)ethyl)-N-propylamino)ethanol dihydrobromide] | – | quantity of radiolabelled cholesterol synthesized (inhibition of cholesterol biosynthesis) ([1]; dihydrobromide): most pronounced; also recorded: cholesterol quantity is diminished; also recorded: significantly lowered amounts of cholesterol; also recorded: greatest lowering of cholesterol; quantity of radiolabelled cholesterol synthesized (inhibition of cholesterol biosynthesis) ([1]; listed as BK 35.2HBr, dihydrobromide): highest potential to inhibit cholesterol biosynthesis; amount of intermediate sterols representing lanosterol or T-MAS (accumulation of early postsqualene intermediates) ([1]; FIG. 4, dihydrobromide): ten-fold increase; also recorded: increased |
| CN(CCc1ccc(Cl)c(Cl)c1)CC(O)c1ccncc1 (stereo not drawn) [BK-38.2HBr, 1-(4-pyridyl)-2-(N-(2-(3,4-dichlorophenyl)ethyl)-N-methylamino)ethanol dihydrobromide] | significantly lowered amounts of cholesterol | – |
| OC(Cn1cncn1)(Cn1cncn1)c1ccc(F)cc1F [Fluconazole, fluconazole, reference compound] | weaker inhibitor of cholesterol biosynthesis | – |
| CC[C@H](C)C(=O)O[C@H]1C[C@@H](C)C=C2C=C[C@H](C)[C@H](CC[C@@H]3C[C@@H](O)CC(=O)O3)[C@H]21 [Lovastatin, lovastatin, reference compound] | completely blocked the biosynthesis | – |
